Assay results from article PMC9218685, “Legume Plant Peptides as Sources of Novel Antimicrobial Molecules Against Human Pathogens” (Frontiers in Molecular Biosciences, 2022).
In brackets after ≈: the same amount, converted by molar mass. Ends that are not written are not given here. Peptide text beside a SMILES is read from it.

Tests used:
Type in all cases: cell-based
[1] = test system: Escherichia coli (ATCC 8739); settings: for MBC Escherichia coli: ATCC 8739, 3 h
Text: (§1) The following pathogenic bacterial strains were used: The Gram-positive Enterococcus faecalis (ATCC 29212), Staphylococcus aureus (HNCMO112011), Listeria monocytogenes (ATCC 19111) and the Gram-negative Pseudomonas aeruginosa (ATCC 27853), Escherichia coli (ATCC 8739), Salmonella enterica (ATCC 13076), Klebsiella pneumoniae (NCTC 13440), Acinetobacter baumannii (ATCC 17978) obtained from the ATCC (United States) and NCTC (National Collection of Type Cultures–England). For the antifungal experiment the Candida albicans W01 strain ([Ördögh et al., 2014]) was used. Antimicrobial activities of peptides against ∼10^7 log phase bacteria were tested in Potassium-Phosphate Buffer (PPB, pH 7.4) as described by [Jenei et al. (2020)] while anti-Candida assays were done according to [Szerencsés et al. (2021)]. The two-fold dilution series of peptides ranged from 25 μM to 0.125 μM, while that of the antibiotics ampicillin (Merck) and miconazole (Duchefa Biochemie) from […] to 0.1 μM. The lowest concentration of the antimicrobial agents, which completely eliminated viable bacteria or C. albicans were considered as the minimal bactericidal concentration (MBC) and minimal fungicidal concentration (MFC).
(§2) The minimal bactericidal concentrations (MBCs) were determined after 3 h of treatment of ∼10^7 log phase bacteria with 2-fold serial dilution of peptides from 25 µM to 0.8 µM. Only 25 of the 50 cationic M. truncatula peptides had activity at ≤25 µM (Supplementary Table S1). […] Three peptides were only active against two bacterial strains; NCR649 against L. monocytogenes and A. baumannii, NCR281 against L. monocytogenes and P. aeruginosa and NCR350 against A. baumannii and P. aeruginosa. […] None of the anionic NCR peptides affected the survival of the tested bacterial strains.

[2] = test system: Pseudomonas aeruginosa (ATCC 27853); settings: for MBC Pseudomonas aeruginosa: ATCC 27853, 3 h
Text: as §1, §2

[3] = test system: Listeria monocytogenes (ATCC 19111); settings: for MBC Listeria monocytogenes: ATCC 19111, 3 h; for Activity against L. monocytogenes: 3 h, ~10^7 log phase bacteria, peptides ≤25 µM
Text: as §1, §2

[4] = test system: E. coli, S. enteritidis, P. aeruginosa, L. monocytogenes, S. aureus, E. faecalis, K. pneumoniae and A. baumannii; experiment: Antimicrobial activity assay, spectrum over the eight tested pathogenic bacteria; settings: 3 h treatment of ~10^7 log phase bacteria, peptides 25 to 0.8 µM; active = MBC ≤25 µM
Text: as §1
We investigated the antimicrobial activity of 78 NCR peptides from M. truncatula and 12 NCRs from other IRLC legumes as well as their shorter derivatives against E. coli, S. enteritidis, P. aeruginosa, L. monocytogenes, S. aureus, E. faecalis, K. pneumoniae and A. baumannii (Supplementary Table S1). In the selection of the M. truncatula peptides, we considered their symbiotic expression levels but also their physicochemical properties. The antimicrobial activity of NCRs has so far been attributed to cationic peptides, with the exception of one anionic peptide. To investigate whether other anionic NCRs are antimicrobial, in addition to the cationic peptides, neutral and anionic NCRs were also included covering a broad range of peptides with different net charges (NC: from 7.8 to −10.2) and isoelectric points (pI: from 10.69 to 2.95). 50 peptides had positive net charge and pI > 7.0, while 28 peptides had negative net charge and pI < 7.0 (Supplementary Table S1A). Of the other legumes, only cationic NCR peptides were studied (Supplementary Table S1B).
as §2

[5] = test system: Acinetobacter baumannii (ATCC 17978); experiment: microbe, parasite or virus in culture; settings: 3 h, ~10^7 log phase bacteria, peptides ≤25 µM
Text: as §1, §2

[6] = 3 h, ~10^7 log phase bacteria, peptides ≤25 µM

Compound: CC(C)C[C@H](NC(=O)[C@H](CCCCN)NC(=O)[C@H](CC(C)C)NC(=O)[C@H](CS)NC(=O)[C@H](CCCCN)NC(=O)CNC(=O)[C@@H](N)Cc1ccccc1)C(=O)N[C@@H](CCCCN)C(N)=O [GoNCR308 (16-23)] (H-FGKCLKLK-NH2)
- MBC Escherichia coli [1]: 25 µM (≈ 23.4 µg/mL)
- MBC Pseudomonas aeruginosa [2]: 25 µM (≈ 23.4 µg/mL)

Compound: CC(C)C[C@H](NC(=O)[C@H](CS)NC(=O)[C@H](CCCCN)NC(=O)CNC(=O)[C@@H](N)Cc1ccccc1)C(=O)N[C@@H](CCCCN)C(=O)N[C@@H](CC(C)C)C(=O)N[C@@H](CCCCN)C(=O)N[C@@H](CS)C(=O)N[C@H](C(N)=O)C(C)C [GoNCR308 (16-25)] (H-FGKCLKLKCV-NH2; N-terminus assumed)
- MBC Escherichia coli [1]: 25 µM (≈ 28.4 µg/mL)
- MBC Listeria monocytogenes [3]: 12.5 µM (≈ 14.2 µg/mL)
- MBC Pseudomonas aeruginosa [2]: 12.5 µM (≈ 14.2 µg/mL)

Compound: CC(C)[C@H](NC(=O)[C@H](CS)NC(=O)[C@@H](N)CCCCN)C(=O)N[C@@H](Cc1ccc(O)cc1)C(=O)N[C@H](C(=O)N1CCC[C@H]1C(=O)N[C@@H](CCCCN)C(=O)N[C@@H](CCCNC(=N)N)C(N)=O)[C@@H](C)O [GoNCR308 (23-30)] (H-KCVYTPKR-NH2)
- MBC Escherichia coli [1]: 50 µM (≈ 49.7 µg/mL)

Compound: CC[C@H](C)[C@H](NC(=O)[C@H](CCCCN)NC(=O)[C@H](CC(=O)O)NC(=O)[C@@H]1CCCN1C(=O)[C@@H](N)Cc1ccccc1)C(=O)N[C@@H](Cc1ccccc1)C(=O)N[C@@H](Cc1ccccc1)C(=O)NCC(=O)N[C@@H](CC(=O)O)C(=O)N[C@@H](CS)C(=O)N[C@@H](CCC(N)=O)C(=O)N[C@H](C(=O)N[C@@H](CC(=O)O)C(=O)N[C@@H](CCCCN)C(=O)N[C@@H](CC(=O)O)C(=O)N[C@@H](CS)C(=O)N[C@@H](CCCCN)C(=O)N1CCC[C@H]1C(=O)N[C@@H](CCCCN)C(=O)N[C@@H](CCCNC(=N)N)C(=O)NCC(=O)N[C@H](C(=O)N[C@@H](CC(N)=O)C(=O)N[C@@H](Cc1ccccc1)C(=O)N[C@@H](CCCNC(=N)N)C(=O)N[C@@H](CS)C(=O)N[C@@H](CCCNC(=N)N)C(=O)N[C@@H](CCCCN)C(=O)NCC(=O)N[C@@H](CCCCN)C(=O)N[C@@H](CS)C(=O)N[C@@H](Cc1ccccc1)C(=O)N1CCC[C@H]1C(=O)N[C@H](C(=O)N[C@@H](CCCNC(=N)N)C(=O)O)C(C)C)C(C)C)[C@@H](C)O [MsNCR463] (H-FPDKIFFGDCQTDKDCKPKRGVNFRCRKGKCFPVR-OH; N-terminus assumed)
- Effective concentration (MBC) against P. aeruginosa ([2]; 3 h, ~10^7 log phase bacteria): 25 µM
- Antibacterial spectrum over the eight tested bacterial strains [4]: only effective against P. aeruginosa

Compound: CC[C@H](C)[C@H](NC(=O)[C@@H]1CCCN1C(=O)[C@@H]1CCCN1C(=O)[C@@H](NC(=O)[C@H](CS)NC(=O)[C@@H](NC(=O)CNC(=O)[C@H](CCCCN)NC(=O)[C@H](CCCNC(=N)N)NC(=O)[C@H](CS)NC(=O)[C@H](CCCNC(=N)N)NC(=O)[C@H](Cc1ccccc1)NC(=O)[C@H](CC(N)=O)NC(=O)[C@H](C)NC(=O)CNC(=O)[C@H](Cc1ccc(O)cc1)NC(=O)[C@H](CC(C)C)NC(=O)[C@H](CCCCN)NC(=O)[C@@H]1CCCN1C(=O)[C@H](CS)NC(=O)[C@H](CC(=O)O)NC(=O)[C@H](CCCCN)NC(=O)[C@H](CC(=O)O)NC(=O)[C@H](CCCNC(=N)N)NC(=O)[C@H](CCCCN)NC(=O)[C@H](CS)NC(=O)[C@H](CO)NC(=O)[C@H](CO)NC(=O)[C@@H](NC(=O)[C@H](Cc1ccccc1)NC(=O)[C@@H](NC(=O)CNC(=O)[C@H](CC(C)C)NC(=O)[C@@H](N)Cc1ccccc1)[C@@H](C)O)[C@@H](C)CC)[C@@H](C)O)C(C)C)C(=O)O [NCR035] (H-FLGTFISSCKRDKDCPKLYGANFRCRKGTCVPPI-OH; N-terminus assumed)
- Activity against E. coli [1, 6]: only effective
- MBC Escherichia coli [1]: 12.5 µM (≈ 47.8 µg/mL)

Compound: CSCC[C@H](NC(=O)[C@H](CCCNC(=N)N)NC(=O)[C@@H](NC(=O)[C@H](Cc1c[nH]c2ccccc12)NC(=O)[C@H](CCCNC(=N)N)NC(=O)[C@H](CS)NC(=O)[C@H](CCC(=O)O)NC(=O)CNC(=O)[C@H](CCCCN)NC(=O)[C@@H](NC(=O)[C@H](CS)NC(=O)[C@H](CCCCN)NC(=O)[C@H](Cc1ccccc1)NC(=O)[C@H](CCCNC(=N)N)NC(=O)[C@H](CCCCN)NC(=O)[C@@H](NC(=O)[C@H](CCCNC(=N)N)NC(=O)[C@@H](NC(=O)[C@H](CO)NC(=O)[C@@H]1CCCN1C(=O)[C@@H]1CCCN1C(=O)[C@H](CS)NC(=O)[C@H](CC(=O)O)NC(=O)[C@H](C)NC(=O)[C@H](CC(=O)O)NC(=O)[C@@H](NC(=O)[C@H](CCC(=O)O)NC(=O)[C@H](CS)NC(=O)[C@H](CC(N)=O)NC(=O)[C@@H](NC(=O)[C@@H](N)Cc1ccc(O)cc1)C(C)C)[C@@H](C)O)[C@@H](C)O)C(C)C)C(C)C)[C@@H](C)O)C(=O)N[C@@H](CO)C(=O)N[C@@H](Cc1ccc(O)cc1)C(=O)N[C@@H](C)C(=O)O [NCR086] (H-YVNCETDADCPPSTRVKRFKCVKGECRWTRMSYA-OH; N-terminus assumed)
- MBC Listeria monocytogenes [3]: 25 µM (≈ 100 µg/mL)

Compound: CC[C@H](C)[C@H](NC(=O)[C@@H]1CCCN1C(=O)[C@H](CO)NC(=O)[C@@H](N)CO)C(=O)N[C@@H](CCCNC(=N)N)C(=O)N[C@H](C(=O)N[C@H](C(=O)N[C@@H](CC(=O)O)C(=O)N[C@H](C(=O)N[C@@H](CO)C(=O)N[C@@H](CCCNC(=N)N)C(=O)N1CCC[C@H]1C(=O)N[C@@H](CS)C(=O)N[C@H](C(=O)N[C@H](C(=O)N[C@@H](CC(=O)O)C(=O)N[C@@H](CCCCN)C(=O)N[C@@H](CC(=O)O)C(=O)N[C@@H](CS)C(=O)N[C@@H](CO)C(=O)N[C@@H](CCCCN)C(=O)N[C@H](C(=O)N[C@@H](CCC(=O)O)C(=O)N[C@@H](Cc1ccc(O)cc1)C(=O)NCC(=O)N[C@@H](Cc1ccc(O)cc1)C(=O)N[C@@H](CCCCN)C(=O)N[C@@H](CC(C)C)C(=O)N[C@@H](CCCNC(=N)N)C(=O)N[C@@H](CS)C(=O)N[C@@H](CCCNC(=N)N)C(=O)N[C@@H](CCCCN)C(=O)NCC(=O)N[C@@H](CCCNC(=N)N)C(=O)N[C@@H](CS)C(=O)N[C@H](C(=O)N[C@@H](Cc1c[nH]cn1)C(=O)N[C@H](C(=O)N1CCC[C@H]1C(=O)N[C@@H](CCCNC(=N)N)C(=O)O)[C@@H](C)CC)C(C)C)C(C)C)[C@@H](C)O)[C@@H](C)O)C(C)C)[C@@H](C)O)C(C)C [NCR533] (H-SSPIRVTDVSRPCTTDKDCSKVEYGYKLRCRKGRCVHIPR-OH; N-terminus assumed)
- MBC Escherichia coli [1]: 25 µM (≈ 115 µg/mL)

Compound: CC(C)C[C@H](NC(=O)[C@H](CS)NC(=O)[C@@H](NC(=O)[C@H](CS)NC(=O)[C@H](CCCCN)NC(=O)[C@@H](NC(=O)[C@@H](NC(=O)[C@H](CCC(=O)O)NC(=O)[C@@H]1CCCN1C(=O)[C@@H]1CCCN1C(=O)[C@@H](NC(=O)[C@H](CS)NC(=O)[C@H](CCCCN)NC(=O)[C@H](CC(C)C)NC(=O)[C@@H](NC(=O)[C@@H](N)CCCCN)C(C)C)[C@@H](C)O)C(C)C)C(C)C)[C@@H](C)O)C(=O)N[C@@H](CS)C(=O)NCC(=O)N[C@@H](CCCCN)C(=O)N[C@@H](CCCNC(=N)N)C(=O)N[C@H](C(=O)N[C@@H](CC(C)C)C(=O)N[C@@H](Cc1ccc(O)cc1)C(=O)O)[C@@H](C)O [NCR649] (H-KVLKCTPPEVVKCTCLCGKRTLY-OH; N-terminus assumed)
- Activity against A. baumannii [5]: active
- Activity against L. monocytogenes [3]: active

Compound: AYYECSNDSACQATTKCVLPRVPRCIKYKCLCGNSNGSGNRWSTRPNRIQKGSTESNYF-OH (cysteines drawn unpaired) [NCR384]
- Antibacterial spectrum over the eight tested bacterial strains [4]: able to kill all tested bacteria except E. faecalis and K. pneumoniae

Compound: GRYTTPWCVRDIDCPKEKCKHPFKPRCLTHSCVCRLWGSQDVI-OH (cysteines drawn unpaired) [NCR281]
- Activity against L. monocytogenes [3]: active
- Activity against P. aeruginosa [2, 6]: active

Compound: KCYQDSDCPKDMCSFLFKPKCIFTRYFPIYLGGICGCDRKTCP-OH (cysteines drawn unpaired) [NCR645]
- Antibacterial spectrum over the eight tested bacterial strains [4]: kill all bacteria except E. faecalis

Compound: MKNGCKHTGHCPRKMCGAKTTKCRNNKCQCV [NCR192]
- Antibacterial spectrum over the eight tested bacterial strains [4]: all active, with the exception of NCR192
